In patent US20070128217A1 (priority 2003, published 2007):

What was measured:
[1] = tested on: antibodies in sera from SARS patients (sera 1a, 1b, 2, 6, 37, 62, London, SARS-yellow, SARS-green); assay type: binding, human; set-up: Binding of serum 6 to linear peptides of protein X1 of SARS-CoV Urbani / Binding of serum 37 to linear peptides of protein X1 of SARS-CoV Urbani / Binding of serum 6 to looped/cyclic peptide (PEPSCAN-ELISA) / Binding of serum 37 to looped/cyclic peptide (PEPSCAN-ELISA) / Binding of serum 37 to looped/cyclic peptides of protein X1 of SARS-CoV Urbani / Binding of serum 6 to linear peptides of protein X2 / Binding of serum 37 to linear peptides of protein X2 / Binding of serum 37 to looped/cyclic peptides of protein X2 of SARS-CoV Urbani / Binding of serum 6 to linear peptides of protein M of SARS-CoV Urbani / Binding of serum 37 to linear peptides of protein M of SARS-CoV Urbani / Binding of serum 6 to looped/cyclic peptides of protein M of SARS-CoV Urbani / Binding of serum 37 to looped/cyclic peptides of protein M of SARS-CoV Urbani / Binding of serum 6 to linear peptides of protein X3 of SARS-CoV Urbani / Binding of serum 37 to linear peptides of protein X3 of SARS-CoV Urbani / Binding of serum 37 to looped/cyclic peptides of protein X3 of SARS-CoV Urbani / Binding of serum 6 to linear peptides of protein X4 of SARS-CoV Urbani / Binding of serum 37 to linear peptides of protein X4 of SARS-CoV Urbani / Binding of serum 37 to looped/cyclic peptides of protein X4 of SARS-CoV Urbani / Binding of serum 6 to linear peptides of protein X5 of SARS-CoV Urbani / Binding of serum 37 to linear peptides of protein X5 of SARS-CoV Urbani / Binding of serum 37 to looped/cyclic peptides of protein X5 of SARS-CoV Urbani / Binding of serum 6 to linear peptides of protein N of SARS-CoV Urbani / Binding of serum 37 to linear peptides of protein N of SARS-CoV Urbani / Binding of serum 6 to linear peptide (PEPSCAN-ELISA) / Binding of serum 1a to looped/cyclic peptides of protein N of SARS-CoV Urbani / Binding of serum 1b to looped/cyclic peptides of protein N of SARS-CoV Urbani / Binding of serum 2 to looped/cyclic peptides of protein N of SARS-CoV Urbani / Binding of serum 6 to looped/cyclic peptides of protein N of SARS-CoV Urbani / Binding of serum 37 to looped/cyclic peptides of protein N of SARS-CoV Urbani / Binding of serum 62 to looped/cyclic peptides of protein N of SARS-CoV Urbani / Binding of serum London to looped/cyclic peptides of protein N of SARS-CoV Urbani / Binding of serum SARS-green to looped/cyclic peptides of protein N of SARS-CoV Urbani: unit not given here
[2] = tested on: rabbit serum obtained by immunizing a rabbit with the SARS-CoV strain Frankfurt 1; assay type: binding; set-up: Binding of a rabbit serum to linear peptides / Binding of a rabbit serum to looped peptides / Rabbit serum linear peptides / Rabbit serum looped peptides / Binding of a rabbit serum to linear peptides of protein N of SARS-CoV Urbani (Rabbit serum linear peptides) / Binding of a rabbit serum to looped/cyclic peptides of protein N of SARS-CoV Urbani (Rabbit serum looped peptides): unit not given here
[3] = tested on: control sera (pooled serum of ten healthy LUMC hospital workers; commercial negative donor pooled serum from the Dutch bloodbank); assay type: binding, human; set-up: Binding of Control serum LUMC to linear peptides / Binding of Control serum Blood-bank to linear peptides / Binding of Control serum LUMC to looped peptides / Binding of Control Serum Blood-Bank to Looped peptides / Binding of Control serum LUMC to linear peptides of the protein M of SARS-CoV Urbani / Binding of Control serum Blood-bank to linear peptides of the protein M of SARS-CoV Urbani / Binding of Control serum LUMC to looped peptides of the protein M of SARS-CoV Urbani / Binding of Control Serum Blood-Bank to Looped peptides of the protein M of SARS-CoV Urbani: unit not given here

## KRWQLALYKGFQFIC
[1]
  Binding of serum 1a to linear peptides of protein X1 of SARS-CoV Urbani: 0.6
  Binding of serum 1a to looped/cyclic peptide (PEPSCAN-ELISA): 0.6
  Binding of serum 1b to linear peptides of protein X1 of SARS-CoV Urbani: 0.5
  Binding of serum 1b to looped/cyclic peptide (PEPSCAN-ELISA): 0.4
  Binding of serum 2 to linear peptides of protein X1 of SARS-CoV Urbani: 0.5
  Binding of serum 2 to looped/cyclic peptide (PEPSCAN-ELISA): 0.5
  Binding of serum 6 to linear peptides of protein X1 of SARS-CoV Urbani: 0.6
  Binding of serum 6 to looped/cyclic peptide (PEPSCAN-ELISA): 0.8
  Binding of serum 37 to linear peptides of protein X1 of SARS-CoV Urbani: 0.6
  Binding of serum 37 to looped/cyclic peptide (PEPSCAN-ELISA): 0.6
  Binding of serum 62 to linear peptides of protein X1 of SARS-CoV Urbani: 0.5
  Binding of serum 62 to looped/cyclic peptide (PEPSCAN-ELISA): 0.6
  Binding of serum London to linear peptides of protein X1 of SARS-CoV Urbani: 0.2
  Binding of serum London to looped/cyclic peptide (PEPSCAN-ELISA): 1.1
  Binding of serum SARS-green to linear peptides of protein X1 of SARS-CoV Urbani: 0.1
  Binding of serum SARS-green to looped/cyclic peptide (PEPSCAN-ELISA): 0.3
  Binding of serum SARS-yellow to linear peptides of protein X1 of SARS-CoV Urbani: 0.2
  Binding of serum SARS-yellow to looped/cyclic peptide (PEPSCAN-ELISA): 0.5
[2]
  Binding of a rabbit serum to linear peptides: 0.1
  Binding of a rabbit serum to looped peptides: 0.8
[3]
  Binding of Control Serum Blood-Bank to Looped peptides: 0.7
  Binding of Control serum Blood-bank to linear peptides: 0.6
  Binding of Control serum LUMC to linear peptides: 0.5
  Binding of Control serum LUMC to looped peptides: 0.7

## MTTVYHITVSQIQLS
[1]
  Binding of serum 1a to linear peptides of protein X2: 0.7
  Binding of serum 1a to looped/cyclic peptides of protein X2 of SARS-CoV Urbani: 0.5
  Binding of serum 1b to linear peptides of protein X2: 0.6
  Binding of serum 1b to looped/cyclic peptides of protein X2 of SARS-CoV Urbani: 0.5
  Binding of serum 2 to linear peptides of protein X2: 0.5
  Binding of serum 2 to looped/cyclic peptides of protein X2 of SARS-CoV Urbani: 0.3
  Binding of serum 6 to linear peptides of protein X2: 0.5
  Binding of serum 6 to looped/cyclic peptides of protein X2 of SARS-CoV Urbani: 0.3
  Binding of serum 37 to linear peptides of protein X2: 0.6
  Binding of serum 37 to looped/cyclic peptides of protein X2 of SARS-CoV Urbani: 0.5
  Binding of serum 62 to linear peptides of protein X2: 0.5
  Binding of serum 62 to looped/cyclic peptides of protein X2 of SARS-CoV Urbani: 0.6
  Binding of serum London to linear peptides of protein X2: 0.5
  Binding of serum London to looped/cyclic peptides of protein X2 of SARS-CoV Urbani: 0.2
  Binding of serum SARS-green to linear peptides of protein X2: 0.2
  Binding of serum SARS-green to looped/cyclic peptides of protein X2 of SARS-CoV Urbani: 0.4
  Binding of serum SARS-yellow to linear peptides of protein X2: 0.6
  Binding of serum SARS-yellow to looped/cyclic peptides of protein X2 of SARS-CoV Urbani: 0.4
[2]
  Binding of a rabbit serum to linear peptides: 0.7
  Binding of a rabbit serum to looped peptides: 0.4
[3]
  Binding of Control Serum Blood-Bank to Looped peptides: 0.6
  Binding of Control serum Blood-bank to linear peptides: 0.6
  Binding of Control serum LUMC to linear peptides: 0.6
  Binding of Control serum LUMC to looped peptides: 0.5

## MDLFMRFFTLGSITA
[1]
  Binding of serum 1a to linear peptides of protein X1 of SARS-CoV Urbani: 0.8
  Binding of serum 1a to looped/cyclic peptide (PEPSCAN-ELISA): 0.5
  Binding of serum 1b to linear peptides of protein X1 of SARS-CoV Urbani: 0.7
  Binding of serum 1b to looped/cyclic peptide (PEPSCAN-ELISA): 0.3
  Binding of serum 2 to linear peptides of protein X1 of SARS-CoV Urbani: 0.7
  Binding of serum 2 to looped/cyclic peptide (PEPSCAN-ELISA): 0.4
  Binding of serum 6 to linear peptides of protein X1 of SARS-CoV Urbani: 0.5
  Binding of serum 6 to looped/cyclic peptide (PEPSCAN-ELISA): 1.0
  Binding of serum 37 to linear peptides of protein X1 of SARS-CoV Urbani: 0.7
  Binding of serum 37 to looped/cyclic peptide (PEPSCAN-ELISA): 0.4
  Binding of serum 62 to linear peptides of protein X1 of SARS-CoV Urbani: 0.7
  Binding of serum 62 to looped/cyclic peptide (PEPSCAN-ELISA): 0.5
  Binding of serum London to linear peptides of protein X1 of SARS-CoV Urbani: 0.3
  Binding of serum London to looped/cyclic peptide (PEPSCAN-ELISA): 0.8
  Binding of serum SARS-green to linear peptides of protein X1 of SARS-CoV Urbani: 0.6
  Binding of serum SARS-green to looped/cyclic peptide (PEPSCAN-ELISA): 0.4
  Binding of serum SARS-yellow to linear peptides of protein X1 of SARS-CoV Urbani: 0.5
  Binding of serum SARS-yellow to looped/cyclic peptide (PEPSCAN-ELISA): 0.5
[2]
  Binding of a rabbit serum to linear peptides: 0.5
  Binding of a rabbit serum to looped peptides: 0.5
[3]
  Binding of Control Serum Blood-Bank to Looped peptides: 0.6
  Binding of Control serum Blood-bank to linear peptides: 0.7
  Binding of Control serum LUMC to linear peptides: 0.6
  Binding of Control serum LUMC to looped peptides: 0.6
